Source: patent publication US9434925B2, “Genetically modified mesenchymal stem cell that express an exogenous cytotoxic protein” (APCETH GMBH & CO. KG, priority 2009, dated 2016)

Test system: human MSCs carrying pLenti6 TK RANTES (HSV tk under RANTES promoter)
Assay: Specific cell death of induced genetically modified MSCs after ganciclovir treatment
Type: cell-based
Conditions: 9 days TNFα (10 ng/ml) and IFNγ (10 ng/ml), then 3 days 100 μM ganciclovir
Protocol: Human MSCs were incubated over night with replication deficient lentiviruses carrying the vector pLenti6 TK RANTES harboring the HSV tk gene under the control of the RANTES promoter and the blasticidin resistance gene under the control of the SV40 promoter (multiplicity of infection (MOI): 10) (see FIG. 8).
After overnight incubation the virus containing media was removed and replaced with fresh media. The next day blasticidin (6 μg/ml) was added to the cells to select for genetically modified MSCs. Culture media, including blasticidin was changed every 3 to 4 days for a minimum of 6 days.
Genetically modified cells (50000 cells in per 6 well) that were generated as described above were treated for 9 days with TNFα (10 ng/ml) and IFNγ (10 ng/ml) with addition of fresh cytokines every 3 days. Subsequently the cells were incubated for 3 days with 100 μM ganciclovir.

Question: `Nc1nc(O)c2ncn(COC(CO)CO)c2n1` [ganciclovir] was tested. Which “survival of genetically modified MSCs” value did it give?
Answer: not surviving
